The text below walks through data of paper PMC4674680, “An in cellulo-derived structure of PAK4 in complex with its inhibitor Inka1” (Nature Communications, 2015).

In assay [1] the target is T1, PAK4cat (Homo sapiens, UniProt O96013). As to the kind of experiment: In-cellulo crystal formation with PAK4cat. Type of assay: cell-based. More on the design: PAK4 (286–591). The note with it: transfected mammalian cells. The protocol:
Generation and harvesting of intracellular PAK4 crystals
COS-7, HeLa, HEK293 or U2OS cells (35-mm culture dish or glass coverslip) were typically transfected with 2.5 μg of each plasmid in 2 ml of media using Lipofectamine 2000 (Invitrogen) or the GenomeONE Neo EX haemagglutinating virus of Japan envelope transfection kit (Cosmo Bio Co. Ltd) as per the manufacturer's protocol. Crystals were observed by phase-contrast microscopy using a × 10 objective (Nikon Eclipse TE300) 1–4 days post transfection. The structure of Flag–iBox–PAK4cat (Figs 2 and 3) was determined from crystals grown in COS-7 cells. The cells were harvested 3 days after transfection by incubating in PBS with 0.125% (w/v) trypsin and 25% (v/v) glycerol (Merck) for 30 min. Individual cells containing single crystals were then mounted in 0.1–0.2 mm cryoloops (Hampton Research) and flash cooled in liquid nitrogen.

Assay [2] deals with T1, PAK4cat. Briefly: In-vitro kinase assay, PAK4cat (phosphorylation of GST-Raf13). The assay is classed as biochemical. More on the design: PAK1 (1–545) and PAK4 (286–591), respectively; 6His (N); made in house; host or cells: Escherichia coli BL21-CodonPlus(DE3). The settings on record: Fig. 1d; n=3; IC50 from intercepts of the graphs; PAK 50 nM, 10 μM GST-Raf1S338, 10 μM ATP (γ32P), pH 7.3, 30 °C 20 min; peptide preincubated on ice 10 min. Here is the method:
Purified PAK1 or PAK4 (50 nM in 25–50 μl) were incubated with 10 μM GST-Raf1S338 peptide in 10 μM ATP (2 μCi of γ32P ATP) of kinase buffer (25 mM HEPES, pH 7.3, 0.1% Triton X-100, 50 mM KCl, 10 mM MgCl2, 1 mM dithiothreitol) at 30 °C for 20 min. Samples were analysed by SDS–PAGE or adsorption of the GST substrate mix onto polyvinylidene difluoride membranes, followed by extensive washing to remove free γ32P-ATP. The synthetic peptides of 95% purity, as determined by HPLC and mass spectrometric analyses (GenScript), were soluble in aqueous PBS. Stock solutions (10 mM) were quantified via calculated extinction coefficients and absorbance measurements at 280 nm and stored at −80 °C. The diluted peptides were incubated at the indicated concentrations with the kinase on ice (10 min) before addition of γ32P ATP and subsequent incubation at 30 °C. The synthetic peptide array (Jerini Biotools) was phosphorylated in situ as described previously.

Assay [3] concerns GFP–Inka1:PAK4cat co-crystals. As to the kind of experiment: Live imaging of growing GFP-Inka1:PAK4cat crystals, effect of PF-03758309. Type of assay: cell-based. The protocol: Live cell imaging of crystal growth and SIM and confocal microscopy
The cells were plated at 50% confluence glass cover slips overnight: plasmid transfection used GFP–iBox–Pak4cat and FLAG–iBox–Pak4cat constructs at a ratio of 4:1, to promote crystal nucleation. The cover slips were transferred to a Chamlide magnetic chamber (Live Cell Instruments, Seoul, Korea) with 5% CO2 at 37 °C for live imaging on an Zeiss Axiovert 200 M live-cell imaging with a × 10 objective. We imaged multiple chosen regions for 8 h at 6-min intervals. To measure crystal growth rate, we used instead a Nikon Eclipse Ti microscope equipped with spinning disk confocal attachment (Yokogawa CSU-22 module) to avoid photo-damage. The cells were imaged at × 60 1.4 numerical aperture (NA) objective at 2-min intervals. For SIM and confocal imaging, cells were fixed in non-hardening mounting media (Vectashield). The slides were imaged by Delta vision OMX SIM with a × 100 1.4 NA objective. […] The three-dimensional stacks were analysed by IMARIS software.

For the next assay, the system named is PAK4. The note with it: binds in vitro; ATP-competitive; cited from earlier work. The protocol:
As the Flag-iBox-PAK4 crystal structure contained bound ATP, which is stabilized by the Inka1 inhibitory peptide (Fig. 3a), we were interested on the effect of the ATP-competitive PAK4 inhibitor PF-03758309, which binds with 10 nM affinity in vitro[45]. […] Thus, PF-03758309 appears to allow PAK4cat to incorporate with sub-stoichiometric levels of GFP–Inka1, consistent with PF-03758309 either reducing the affinity of GFP–Inka1 or allowing PAK4cat inco ...

No end group written: not given here.

T1 sequence (O96013 286-591): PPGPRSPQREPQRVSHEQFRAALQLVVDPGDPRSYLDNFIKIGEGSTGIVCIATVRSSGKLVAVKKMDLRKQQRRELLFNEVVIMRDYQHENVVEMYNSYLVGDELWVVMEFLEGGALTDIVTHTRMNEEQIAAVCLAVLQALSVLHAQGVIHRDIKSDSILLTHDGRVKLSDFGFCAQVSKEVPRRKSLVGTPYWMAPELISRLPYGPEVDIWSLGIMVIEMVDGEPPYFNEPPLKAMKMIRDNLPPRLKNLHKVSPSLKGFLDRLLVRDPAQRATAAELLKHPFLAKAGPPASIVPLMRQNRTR

As to “Inka1 (255–285): C-terminal 31 amino acid of Inka1 (RPEPELPADVSRFAALMSCRSRQPIICNDVS; UniProt Q96EL1 255-285, looked up, fragment)”, in the assay with PAK4cat [1], the “Induction of intracellular crystals with PAK4cat, in words” value was “able to induce crystals more efficiently than the Inka1 (166–203)”. What is called IC50 is the concentration that gives 50% inhibition. Low values mean greater potency, high ones weaker potency. Consider RGRSRQPLVLGDNC [iBox14], for which the midpoint of inhibition against PAK4cat [2], the IC50, lay at 5 µM. For the compound `Cc1nc(Nc2[nH]nc3c2CN(C(=O)N[C@H](CN(C)C)c2ccccc2)C3(C)C)c2sccc2n1` [PF-03758309], the “Effect on crystal GFP signal, in words” value in assay [3] (5 μM PF-03758309, elongation phase) is reported as “depleted of GFP signal”. Also, in assay [3] (after PF3758309 addition (5 μM), Fig. 6d), the “Effect on crystal growth rate, in words” value was “Crystal growth slowed”. Besides, the affinity with PAK4 is reported as 10 nM.
